Literature values in paper PMC9230797, “Integration of a Physiologically Based Pharmacokinetic and Pharmacodynamic Model for Tegoprazan and Its Metabolite: Application for Predicting Food Effect and Intragastric pH Alterations” (Pharmaceutics, 2022).

Parameters: method as in earlier work
Settings: cited from earlier work

Cc1nc2cc(C(=O)N(C)C)cc(O[C@H]3CCOc4cc(F)cc(F)c43)c2[nH]1 [tegoprazan]
CLR (renal clearance): 1.1 L/h
fu (unbound fraction) (plasma): 0.087
